# Reference: PubChem BioAssay AID2060504 (Molecular Pharmacology Branch, DTP, NCI, 2025)
# Tested on: 636577-100-R-J1-PDC complex spheroid viability
# Assay: Anticancer human tumor 636577-100-R-J1-PDC patient-derived endometrial adenocarcinoma cell line growth inhibition [GQUAD]
# Settings: for IC50: curve of first compound; for viability, T/C: stronger effect = lower value
# Outline: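 Multi-cell-type spheroids of tumor cells with HUVEC and mesenchymal stem cells, treated with drug combinations. Concentrations descend in half-log steps from near clinical Cmax, or from 10 microM where Cmax is unknown; viability read-out.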
# [1] = second compound 0.0316 µM, first compound 0.0316 µM
# [2] = second compound 0.0316 µM, first compound 0.1 µM
# [3] = second compound 0.0316 µM, first compound 0.316 µM
# [4] = second compound 0.0316 µM, first compound 1 µM
# [5] = second compound 0.0316 µM, first compound 3.16 µM
# [6] = second compound 0.0316 µM, first compound 10 µM
# [7] = second compound 0.1 µM, first compound 0.0316 µM
# [8] = second compound 0.1 µM, first compound 0.1 µM
# [9] = second compound 0.1 µM, first compound 0.316 µM
# [10] = second compound 0.1 µM, first compound 1 µM
# [11] = second compound 0.1 µM, first compound 3.16 µM
# [12] = second compound 0.1 µM, first compound 10 µM
# [13] = second compound 0.316 µM, first compound 0.0316 µM
# [14] = second compound 0.316 µM, first compound 0.1 µM
# [15] = second compound 0.316 µM, first compound 0.316 µM
# [16] = second compound 0.316 µM, first compound 1 µM
# [17] = second compound 0.316 µM, first compound 3.16 µM
# [18] = second compound 0.316 µM, first compound 10 µM
# [19] = second compound 1 µM, first compound 0.0316 µM
# [20] = second compound 1 µM, first compound 0.1 µM
# [21] = second compound 1 µM, first compound 0.316 µM
# [22] = second compound 1 µM, first compound 1 µM
# [23] = second compound 1 µM, first compound 3.16 µM
# [24] = second compound 1 µM, first compound 10 µM
# [25] = second compound 3.16 µM, first compound 0.0316 µM
# [26] = second compound 3.16 µM, first compound 0.1 µM
# [27] = second compound 3.16 µM, first compound 0.316 µM
# [28] = second compound 3.16 µM, first compound 1 µM
# [29] = second compound 3.16 µM, first compound 3.16 µM
# [30] = second compound 3.16 µM, first compound 10 µM
# [31] = second compound 10 µM, first compound 0.0316 µM
# [32] = second compound 10 µM, first compound 0.1 µM
# [33] = second compound 10 µM, first compound 0.316 µM
# [34] = second compound 10 µM, first compound 1 µM
# [35] = second compound 10 µM, first compound 3.16 µM
# [36] = second compound 10 µM, first compound 10 µM
# 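Note: viability read after seven days of drug exposure.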
# 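Throughout, for viability, T/C: luminescence signal used as a proxy for viable cells; 100% = DMSO vehicle control wells.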
smiles,measurement,setting,value
CC(C)n1c(=O)n(C)c2cnc3cc(F)c(-c4ccc(OCCCN5CCCCC5)nc4)cc3c21 + CN(C)c1ccc(Nc2c3ccc(NC(=O)CCN4CCCC4)cc3nc3cc(NC(=O)CCN4CCCC4)ccc23)cc1,IC50,second compound 0.0316 µM,> 10000 nM
same,IC50,second compound 0.1 µM,> 10000 nM
same,IC50,second compound 0.316 µM,8490 nM
same,IC50,second compound 1 µM,4900 nM
same,IC50,second compound 3.16 µM,< 31.6 nM
same,IC50,second compound 10 µM,< 31.6 nM
same,"viability, T/C",[1],121%
same,"viability, T/C",[2],101%
same,"viability, T/C",[3],127%
same,"viability, T/C",[4],49.5%
same,"viability, T/C",[5],93.8%
same,"viability, T/C",[6],53.5%
same,"viability, T/C",[7],128%
same,"viability, T/C",[8],102%
same,"viability, T/C",[9],109%
same,"viability, T/C",[10],74.9%
same,"viability, T/C",[11],82.1%
same,"viability, T/C",[12],52.4%
same,"viability, T/C",[13],67.6%
same,"viability, T/C",[14],81.7%
same,"viability, T/C",[15],103%
same,"viability, T/C",[16],63.6%
same,"viability, T/C",[17],71.7%
same,"viability, T/C",[18],46.6%
same,"viability, T/C",[19],60%
same,"viability, T/C",[20],67.8%
same,"viability, T/C",[21],75.9%
same,"viability, T/C",[22],57%
same,"viability, T/C",[23],61.6%
same,"viability, T/C",[24],33.5%
same,"viability, T/C",[25],39%
same,"viability, T/C",[26],36.2%
same,"viability, T/C",[27],30.2%
same,"viability, T/C",[28],27%
same,"viability, T/C",[29],20.6%
same,"viability, T/C",[30],14.5%
same,"viability, T/C",[31],7%
same,"viability, T/C",[32],5.49%
same,"viability, T/C",[33],4.48%
same,"viability, T/C",[34],2.77%
same,"viability, T/C",[35],2.25%
same,"viability, T/C",[36],0.79%
CC1COCCN1c1cc(-c2ccnn2C)c2ccnc(-c3ccn[nH]3)c2n1 (centres undefined) + CN(C)c1ccc(Nc2c3ccc(NC(=O)CCN4CCCC4)cc3nc3cc(NC(=O)CCN4CCCC4)ccc23)cc1,IC50,second compound 0.0316 µM,66.9 nM
same,IC50,second compound 0.1 µM,63.7 nM
same,IC50,second compound 0.316 µM,53.3 nM
same,IC50,second compound 1 µM,32 nM
same,IC50,second compound 3.16 µM,< 31.6 nM
same,IC50,second compound 10 µM,< 31.6 nM
same,"viability, T/C",[1],70%
same,"viability, T/C",[2],39%
same,"viability, T/C",[3],21.6%
same,"viability, T/C",[4],13.2%
same,"viability, T/C",[5],7.12%
same,"viability, T/C",[6],3.43%
same,"viability, T/C",[7],67.8%
same,"viability, T/C",[8],36.9%
same,"viability, T/C",[9],23.4%
same,"viability, T/C",[10],13.1%
same,"viability, T/C",[11],5.95%
same,"viability, T/C",[12],2.75%
same,"viability, T/C",[13],62.1%
same,"viability, T/C",[14],34.5%
same,"viability, T/C",[15],21.6%
same,"viability, T/C",[16],13.4%
same,"viability, T/C",[17],5%
same,"viability, T/C",[18],3.28%
same,"viability, T/C",[19],52%
same,"viability, T/C",[20],27.8%
same,"viability, T/C",[21],22.7%
same,"viability, T/C",[22],14%
same,"viability, T/C",[23],7.85%
same,"viability, T/C",[24],3.23%
same,"viability, T/C",[25],30.8%
same,"viability, T/C",[26],24.2%
same,"viability, T/C",[27],19.4%
same,"viability, T/C",[28],11.3%
same,"viability, T/C",[29],5.18%
same,"viability, T/C",[30],2.8%
same,"viability, T/C",[31],4.8%
same,"viability, T/C",[32],3.22%
same,"viability, T/C",[33],2.72%
same,"viability, T/C",[34],2.01%
same,"viability, T/C",[35],1.02%
same,"viability, T/C",[36],0.62%
